In patent US8124657B2, “Metallofullerols and their applications for preparation of medicine for inhibition of tumor growth” (Institute of High Energy Physics Chinese Academy of Sciences, priority 2005, dated 2012):
Marks after values point to notes of the source that are not given here.

How the values were obtained:
H22 hepatoma = experiment: Antitumor activity on murine H22 hepatoma implanted subcutaneously in Kunming mice; type: in vivo; conditions: for Tumor Weight: mean±SEM
Protocol: Antitumor studies of hydroxylated metallofullerene nanoparticles were performed on Kunming mice (female, adult, 4 weeks at the start of the experiment, body weight ranging from 20 to 22 g). The mice were subcutaneously implanted with 1×10^6 cells of H22 hepatoma (in 100 μl of saline) in each mouse at the right hind leg. Primary tumors (before administration of antitumor agents) were measured with calipers. The end point of the experiment was determined by the diameter of their leg loaded with tumor up to 2 or 2.2 centimeters. The size of tumor was monitored by daily measurement. Tumor growth curve was obtained by the diameter of the tumor as a function of the time.
The 40 mice of weight ranging from 20 to 22 g were randomly divided into 6 groups. The tumor-bearing mice were then systemically treated with hydroxylated metallofullerene nanoparticles saline solution by intraperitoneal injections once a day. Two doses of hydroxylated metallofullerene nanoparticles, 114 and 228 μg/kg corresponding to 1×10^−7 and 2×10^−7 mol/kg, respectively, were used in the experiment. The currently clinic antineoplastic agent CTX was used for the positive control, with a dose 30 mg/kg (1×10^−4 mol/kg, MW 279.1) of the currently clinic use for cancer therapy. Because of its side effects, treatments by 1×10^−4 and 5×10^−[…] of CTX continued for the first 7 days. Each mouse was administrated intraperitoneally (i.p.) a single dose of 0.2 ml per day from the second day of inoculation and continued to the day before sacrifice. The change of the tumor size was precisely measured every 24 hours.
Table 1 is the tumor weights (mean±SEM, Table 1) from 5-7 mice in each group. FIG. 1 is the Inhibition curve of hepatoma growth in mice by treatment with metallofullerol nanoparticles in two independent experiments. The growth of tumor size was monitored through measuring the diameter of the tumor every 24 hours. Tumor volumes were then calculated according to the formula: V=4πr^3/3. Tumor growth curve was obtained by the diameter of the tumor.

[1] = Serum liver and kidney function markers in H22 tumor-bearing mice; type: in vivo
Protocol: In another aspect, the invention of hydrolated metallofullerene nanoparticles low toxicity in vivo. Liver function was evaluated with serum levels of total bilirubin levels (TBIL), alanine aminotransferase (ALT) and aspartate aminotransferase (AST). Nephrotoxicity was determined by blood urea nitrogen (BUN) and creatinine (Cr). For instance, the ALT levels of saline-treated groups are almost 4 times of the normal mean value. These indicate that implantation of H22 hepatoma itself in mice has harmed the functions of liver and kidney before treatments. […] After nanoparticle-treatment, the activities of ALT and AST (P<0.01) are reduced by 40% compared with saline control.
Table 2 is the serum TBIL, ALT, AST, and creatinine levels in tumor-bearing mice associated with metallofullerol treatment.

[2] = tested on: H22 hepatoma tumor tissues; experiment: HE staining of tumor tissues of H22 tumor-bearing mice; type: in vivo
Source text: The tumor morphology of HE staining of paraffin-embedded sections of tumor tissues in nanoparticle-treated, CTX-treated and the control groups, are shown in FIG. 9. In the saline control group, tumor cells heavily proliferated, arrayed regularly, and grievously invaded surrounding musculature (FIGS. 9A and B). […] When […] H22 liver tumors developed subcutaneously in mice, the envelope surrounding the neoplastic tissues, mainly composed of capillary vessels, fibrosis and lymphadenoid tissues were formed (FIG. 9C). […] In the [Gd@C82(OH)22]n-treated groups, lymphocyte hyperplasia (lymphopoiesis) and aggregated follicles around the transplanted tumor tissues were clearly seen (FIG. 9C). But in the CTX-treated mice, this envelope of fibroblasts associated with sporadic neutrophil cells was small so that it could not completely enclose the entire tumor tissues. Unlike in groups of the nanoparticle-treatment, the tumor invasion into surrounding normal muscle cells still existed in the CTX-treatment groups; although necrosis of tumor tissue was observed (FIGS. 9E and F).

[3] = tested on: MCF-7 human breast carcinoma
Protocol: Athymic BALB/c nu/nu female mice (weighing 16.0±1.0 g) were acclimated in the controlled environment (22±1° C. in temperature, 60±10% in humidity and a 12 h light/dark cycle) with free access to sterile distilled water and commercial laboratory complete food containing no pathogens. All animal experiments were performed in compliance with local ethics committee. The human beast cancer MCF-7 cell line was provided by the Cancer Institute and Cancer Hospital, Chinese Academy of Medical Sciences. The tumor bearing nude mice (female) were randomly divided into three groups, twelve in each group. […] A currently used clinical antitumor agent, Paclitaxel, was used as the positive control. Paclitaxel was given 4 times at intervals of 3 days at the dose of 10 mg/kg; when it was not injected, saline solution was injected instead of it. 0.9% saline solution was used as a negative control in the antitumor experiment. The whole administration process lasted 14 days after the starting point. The body weight and tumor size were used as two basic parameters in the experiments, and tumor growth and body weight curve were prepared as a function of time. Tumor weight was calculated according to the formula: Tumor weight (mg)=length (mm)×(width (mm))^2/2.

[4] = Dosage I (Low): CTX 5 × 10^−5 mol/kg/day i.p., n = 6
[5] = Dosage II (High): CTX 1 × 10^−4 mol/kg/day i.p., n = 11

SMILES	Inhibition Efficiency (H22 hepatoma; [4]) [%]	Tumor Weight (H22 hepatoma; [4]) [g]	Inhibition Efficiency (H22 hepatoma; [5]) [%]	Tumor Weight (H22 hepatoma; [5]) [g]	Change of serum ALT versus saline ([1]; CTX-treated)	Serum ALT ([1]; high dose group) [IU/L]	Serum AST ([1]; high dose group)	Serum Creatinine ([1]; high dose group) [µmol/L]	Serum TBIL ([1]; high dose group) [µmol/L]	Change of serum concentrations of TBIL, BUN and Cr ([1]; i.p. injections)	Immune responses in tumor tissues (HE staining) [2]	Tumor necrosis in HE-stained tumor sections [2]	Inhibition Efficiency ([3]; CTX 71.6 μmol/kg/day, N = 10, nude mice) [%]	Mortality of mice ([3]; MCF-7 tumor-bearing nude mice under treatment) [%]
O=P1(N(CCCl)CCCl)NCCCO1 (centres unmarked) [CTX]	52.0	1.80 ± 0.41	67.5	1.22 ± 0.86	not reduced, but even slightly increased	152.2 ± 71.5	337 ± 53.7 ^a IU/L	51.0 ± 3.3	1.66 ± 0.59	do not significantly changed	not observed	evidently induced tumor necrosis	47.0	–
CC(=O)O[C@H]1C(=O)[C@@]2(C)[C@H]([C@H](OC(=O)c3ccccc3)[C@]3(O)C[C@H](OC(=O)[C@H](O)[C@@H](NC(=O)c4ccccc4)c4ccccc4)C(C)=C1C3(C)C)[C@]1(OC(C)=O)CO[C@@H]1C[C@@H]2O [Paclitaxel]	–	–	–	–	–	–	–	–	–	–	–	–	–	16.7
